Literature values in US5780494A, “Piperidinyl-terminated alkylamino ethynl alanine amino diol compounds for treatment of hypertension” (G. D. Searle & Co., priority 1997, dated 1998).
Square brackets hold non-standard residues; d marks the D form. Peptide text beside a SMILES is read from it. * marks the point of attachment. Sta = CC(C)C[C@H](N)[C@@H](O)CC(=O)O; Isovaleryl = CC(C)CC(=O)*

Columns and labels:
hog renin = details: after the injection of hog renin into nephrectomized rats

Question: With `CC(C)CC(=O)N[C@H](C(=O)N[C@H](C(=O)N[C@@H](CC(C)C)[C@@H](O)CC(=O)N[C@@H](C)C(=O)N[C@@H](CC(C)C)[C@@H](O)CC(=O)O)C(C)C)C(C)C` [pepstatin] (Isovaleryl-VV[Sta]A[Sta]-OH) as the molecule, how does the inhibition of renin (renin) read?
Answer: Its inhibition of renin is “inhibitor”.

Question: And the “inhibition of cathepsin D” value (cathepsin D)?
Answer: Its value is “inhibitor”.

Question: What about the inhibition of pepsin (pepsin) of the same molecule?
Answer: Its inhibition of pepsin is “inhibitor”.

Question: What about the blood pressure reduction (hog renin) of the same molecule?
Answer: Its blood pressure reduction is “found to reduce blood pressure”.
